Laboratory results published in US9815839B2, “N-(1-(substituted-phenyl)ethyl)-9H-purin-6-amines as PI3K inhibitors” (Incyte Corporation, priority 2010, dated 2017).

Key:
[1] = test system: Pfeiffer cell line (diffuse large B cell lymphoma); test: Pfeiffer cell proliferation assay; format: cell-based; conditions: Homo sapiens, Pfeiffer, Pfeiffer cells, 3-4 days plus 12 hours [3H]-thymidine incorporation
How it was run: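 Pfeiffer DLBCL cells grown in RPMI/10% FBS at 2×10^3 cells/well in ultra-low-binding plates with a range of compound concentrations for 3-4 days. [3H]-thymidine (1 μCi/well) was then added for 12 h more. Incorporation was read by filtration and scintillation counting.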

PI3Kδ (p110δ/p85α) = target: T1, PI3Kδ (p110δ/p85α) (Homo sapiens, UniProt O00329); test: PI3Kδ scintillation proximity assay; format: biochemical; conditions: 20 μM ATP, 4 nM PI3Kδ
T1 construct: purchased Millipore (Bedford, Mass.)
T1 sequence (O00329 whole entry, species assumed): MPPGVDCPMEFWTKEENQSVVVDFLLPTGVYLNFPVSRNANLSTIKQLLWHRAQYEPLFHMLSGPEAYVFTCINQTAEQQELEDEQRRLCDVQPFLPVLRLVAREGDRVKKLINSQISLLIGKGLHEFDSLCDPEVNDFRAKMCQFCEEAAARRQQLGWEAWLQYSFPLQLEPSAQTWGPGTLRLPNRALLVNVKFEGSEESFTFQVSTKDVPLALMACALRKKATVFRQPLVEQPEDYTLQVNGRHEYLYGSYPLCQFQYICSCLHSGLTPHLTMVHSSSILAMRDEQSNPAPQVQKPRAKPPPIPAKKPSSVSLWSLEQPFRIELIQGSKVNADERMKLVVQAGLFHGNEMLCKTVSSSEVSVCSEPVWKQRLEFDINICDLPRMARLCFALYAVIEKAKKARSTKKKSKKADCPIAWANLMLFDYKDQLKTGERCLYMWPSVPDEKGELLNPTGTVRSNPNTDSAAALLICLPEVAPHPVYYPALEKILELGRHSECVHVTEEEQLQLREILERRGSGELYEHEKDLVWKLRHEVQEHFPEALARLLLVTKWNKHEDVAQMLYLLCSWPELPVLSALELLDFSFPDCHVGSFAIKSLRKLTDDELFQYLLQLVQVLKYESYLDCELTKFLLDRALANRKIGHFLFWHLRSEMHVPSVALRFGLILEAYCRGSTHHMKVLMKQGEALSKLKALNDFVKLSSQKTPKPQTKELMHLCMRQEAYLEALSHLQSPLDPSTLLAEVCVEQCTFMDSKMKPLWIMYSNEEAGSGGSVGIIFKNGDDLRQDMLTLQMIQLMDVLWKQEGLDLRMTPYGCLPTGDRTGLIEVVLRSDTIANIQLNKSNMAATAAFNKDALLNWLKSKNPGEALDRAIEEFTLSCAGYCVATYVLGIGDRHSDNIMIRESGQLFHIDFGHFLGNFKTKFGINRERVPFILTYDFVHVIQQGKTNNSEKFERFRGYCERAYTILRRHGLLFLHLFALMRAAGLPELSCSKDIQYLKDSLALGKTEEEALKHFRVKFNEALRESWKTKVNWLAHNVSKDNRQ
T1 sequence (P27986 whole entry partner, species assumed): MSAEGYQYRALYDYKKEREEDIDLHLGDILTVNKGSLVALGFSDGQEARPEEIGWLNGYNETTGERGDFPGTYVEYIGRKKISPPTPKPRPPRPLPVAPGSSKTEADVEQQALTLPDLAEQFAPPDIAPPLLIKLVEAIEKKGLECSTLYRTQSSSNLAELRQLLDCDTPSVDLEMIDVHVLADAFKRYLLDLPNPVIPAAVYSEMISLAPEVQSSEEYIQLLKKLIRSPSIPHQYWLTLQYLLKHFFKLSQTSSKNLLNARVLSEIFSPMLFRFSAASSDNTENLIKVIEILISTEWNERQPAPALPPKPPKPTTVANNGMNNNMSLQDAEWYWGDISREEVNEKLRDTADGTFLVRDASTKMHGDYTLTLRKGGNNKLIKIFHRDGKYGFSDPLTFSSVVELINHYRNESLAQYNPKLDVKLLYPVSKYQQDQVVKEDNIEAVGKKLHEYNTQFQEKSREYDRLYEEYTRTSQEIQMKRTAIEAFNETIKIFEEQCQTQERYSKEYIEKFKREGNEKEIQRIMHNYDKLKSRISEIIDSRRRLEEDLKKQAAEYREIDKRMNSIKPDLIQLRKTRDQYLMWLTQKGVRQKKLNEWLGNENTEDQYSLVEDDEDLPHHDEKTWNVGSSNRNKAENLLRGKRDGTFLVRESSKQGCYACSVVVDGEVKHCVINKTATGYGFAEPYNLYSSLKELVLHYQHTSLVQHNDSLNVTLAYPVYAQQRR
How it was run: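 p110δ/p85α (4 nM) phosphorylated 20 μM PIP2 with 20 μM ATP plus [γ-33P]ATP in 20 mM MOPS pH 6.7, 10 mM MgCl2, 5 mM DTT, 0.03% CHAPS, 0.5% DMSO, 210 min at room temperature. EDTA quench, WGA SPA bead capture, scintillation counting; IC50 from log-concentration fit.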

SMILES | IC50 [1] | IC50 (PI3Kδ (p110δ/p85α))
COCCN1CC(c2c(Cl)c(Cl)cc(C(C)Nc3ncnc4[nH]cnc34)c2OC)C1 (centres unmarked) [Example 200, N-(1-{4,5-Dichloro-2-methoxy-3-[1-(2-methoxyethyl)azetidin-3-yl]phenyl}ethyl)-9H-purin-6-amine] | < 100 nM | < 50 nM
CCOc1c(C(C)Nc2ncnc3[nH]cnc23)cc(C#N)c(F)c1-c1cncc(S(C)(=O)=O)c1 (centres unmarked) [Example 212, 4-Ethoxy-2-fluoro-3-[5-(methylsulfonyl)pyridin-3-yl]-5-[1-(9H-purin-6-ylamino)ethyl]benzonitrile bis(trifluoroacetate)] | 100 to 500 nM | < 50 nM
COc1c(C(C)Nc2ncnc3[nH]cnc23)cc(Cl)c(C)c1-c1ccc(Cl)c(F)c1 (centres unmarked) [Example 92, N-{1-(4′,5-dichloro-3'-fluoro-2-methoxy-6-methylbiphenyl-3-yl)ethyl]-9H-purin-6-amine] | 100 to 500 nM | 100 to 250 nM
COc1c(C(C)Nc2ncnc3[nH]cnc23)cc(Cl)c(Cl)c1C1CN(C)C1 (centres unmarked) [Example 199, N-{1-[4,5-Dichloro-2-methoxy-3-(1-methylazetidin-3-yl)phenyl]ethyl}-9H-purin-6-amine] | < 100 nM | < 50 nM
CCOc1c(C(C)Nc2ncnc3[nH]cnc23)cc(Cl)c(C#N)c1-c1ccc(C(C)O)nc1 (centres unmarked) [Example 180, 6-chloro-3-ethoxy-2-[6-(1-hydroxyethyl)pyridin-3-yl]-4-[1-(9H-purin-6-ylamino)ethyl]benzonitrile bis(2,2,2-trifluoroacetate)] | < 100 nM | < 50 nM
Cc1c(Cl)cc(C(C)Nc2ncnc3[nH]cnc23)c(-c2cccc(F)c2)c1N(S(C)(=O)=O)S(C)(=O)=O (centres unmarked) [Example 12, N-{4-chloro-3′-fluoro-3-methyl-6-[1-(9H-purin-6-ylamino)ethyl]biphenyl-2-yl}-N-(methylsulfonyl)methanesulfonamide] | < 100 nM | < 50 nM
COc1c(C(C)Nc2ncnc3[nH]cnc23)cc(Cl)c(Cl)c1C1CN(CCO)C1 (centres unmarked) [Example 196, 2-(3-{2,3-Dichloro-6-methoxy-5-[1-(9H-purin-6-ylamino)ethyl]phenyl}azetidin-1-yl)ethanol bis(trifluoroacetate)] | < 100 nM | < 50 nM
COc1c(C(C)Nc2ncnc3[nH]cnc23)cc(Cl)c(Cl)c1C1CN(CCCC(F)(F)F)C1 (centres unmarked) [Example 203, N-(1-{4,5-Dichloro-2-methoxy-3-[1-(4,4,4-trifluorobutyl)azetidin-3-yl]phenyl}ethyl)-9H-purin-6-amine] | < 100 nM | < 50 nM
CCOc1c(C(C)Nc2ncnc3[nH]cnc23)cc(Cl)c(C#N)c1-c1ccc(C(=O)N(C)C)nc1 (centres unmarked) [Example 179, 5-{3-chloro-2-cyano-6-ethoxy-5-[1-(9H-purin-6-ylamino)ethyl]phenyl}-N,N-dimethylpyridine-2-carboxamide bis(2,2,2-trifluoroacetate)] | < 100 nM | < 50 nM
COc1c(C(C)Nc2ncnc3[nH]cnc23)cc(Cl)c(C)c1-c1cccc(C#N)c1 (centres unmarked) [Example 40, 3′-chloro-6′-methoxy-2′-methyl-5′-[1-(9H-purin-6-ylamino)ethyl]biphenyl-3-carbonitrile] | < 100 nM | < 50 nM
Cc1c(Cl)cc(C(C)Nc2ncnc3[nH]cnc23)c(-c2ccccc2)c1-c1ccc(S(C)(=O)=O)cc1 (centres unmarked) [Example 14, N-{1-[5′-chloro-6′-methyl-4-(methylsulfonyl)-1,1′:2′,1″-terphenyl-3′-yl]ethyl}-9H-purin-6-amine] | < 100 nM | < 50 nM
COc1c(C(C)Nc2ncnc3[nH]cnc23)cc(Cl)c(C)c1-c1cnc(N(C)C)nc1 (centres unmarked) [Example 20, N-(1-{5-chloro-3-[2-(dimethylamino)pyrimidin-5-yl]-2-methoxy-4-methylphenyl}ethyl)-9H-purin-6-amine] | 100 to 500 nM | < 50 nM
Cc1c(Cl)cc(C(C)Nc2ncnc3[nH]cnc23)c(-c2cc(F)cc(F)c2)c1-c1cncnc1 (centres unmarked) [Example 81, N-[1-(4-chloro-3′,5′-difluoro-5-methyl-6-pyrimidin-5-ylbiphenyl-2-yl)ethyl]-9H-purin-6-amine] | < 100 nM | < 50 nM
COc1c(C(C)Nc2ncnc3[nH]cnc23)cc(Cl)c(C)c1-c1ccc(CC#N)cc1 (centres unmarked) [Example 41, {3′-chloro-6′-methoxy-2′-methyl-5′-[1-(9H-purin-6-ylamino)ethyl]biphenyl-4-yl}acetonitril] | > 1000 nM | < 50 nM
CC(Nc1ncnc2[nH]cnc12)c1cc(Cl)cc(-c2cn[nH]c2)c1-c1cc(F)cc(F)c1 (centres unmarked) [Example 124, N-{1-[4-Chloro-3′,5′-difluoro-6-(1H-pyrazol-4-yl)biphenyl-2-yl]ethyl}-9H-purin-6-amine] | < 100 nM | < 50 nM
Cc1c(Cl)cc(C(C)Nc2ncnc3[nH]cnc23)c(-c2cc(F)cc(F)c2)c1-c1ccncc1 (centres unmarked) [Example 76, N-[1-(4-Chloro-3′,5′-difluoro-5-methyl-6-pyridin-4-ylbiphenyl-2-yl)ethyl]-9H-purin-6-amine bis(trifluoroacetate)] | < 100 nM | < 50 nM
Cc1c(Cl)cc(C(C)Nc2ncnc3[nH]cnc23)c(-c2cccc(F)c2)c1N1CCOC1=O (centres unmarked) [Example 7, 3-{4-Chloro-3′-fluoro-3-methyl-6-[1-(9H-purin-6-ylamino)ethyl]biphenyl-2-yl}-1,3-oxazolidin-2-one] | < 100 nM | < 50 nM
Cc1c(Cl)cc(C(C)Nc2ncnc3[nH]cnc23)c(-c2cc(F)cc(F)c2)c1-c1cc(F)nc(F)c1 (centres unmarked) [Example 80, N-{1-[4-chloro-6-(2,6-difluoropyridin-4-yl)-3′,5′-difluoro-5-methylbiphenyl-2-yl]ethyl}-9H-purin-6-amine] | < 100 nM | < 50 nM
COc1c(C(C)Nc2ncnc3[nH]cnc23)cc(Cl)c(Cl)c1C1CN(CC2CC2)C1 (centres unmarked) [Example 201, N-(1-{4,5-Dichloro-3-[1-(cyclopropylmethyl)azetidin-3-yl]-2-methoxyphenyl}ethyl)-9H-purin-6-amine] | < 100 nM | < 50 nM
COc1c(C(C)Nc2ncnc3[nH]cnc23)cc(Cl)c(C)c1-c1ccc(NC(C)=O)cc1 (centres unmarked) [Example 27, N-{3′-chloro-6′-methoxy-2′-methyl-5′-[1-(9H-purin-6-ylamino)ethyl]biphenyl-4-yl}acetamide] | 100 to 500 nM | < 50 nM
COc1ncc(-c2c(C)c(Cl)cc(C(C)Nc3ncnc4[nH]cnc34)c2OC)cc1F (centres unmarked) [Example 109, N-{1-[5-chloro-3-(5-fluoro-6-methoxypyridin-3-yl)-2-methoxy-4-methylphenyl]ethyl]-9H-purin-6-amine] | < 100 nM | < 50 nM
Cc1c(Cl)cc(C(C)Nc2ncnc3[nH]cnc23)c(-c2cccc(F)c2)c1-c1ccnn1C (centres unmarked) [Example 74, N-{1-[4-chloro-3′-fluoro-5-methyl-6-(1-methyl-1H-pyrazol-5-yl)biphenyl-2-yl]ethyl}-9H-purin-6-amine] | < 100 nM | < 50 nM
COc1c(C(C)Nc2ncnc3[nH]cnc23)cc(Cl)c(C)c1-c1cccc(CC#N)c1 (centres unmarked) [Example 46, {3′-chloro-6′-methoxy-2′-methyl-5′-[1-(9H-purin-6-ylamino)ethyl]biphenyl-3-yl}acetonitrile] | < 100 nM | < 50 nM
COc1c(C(C)Nc2ncnc3[nH]cnc23)cc(Cl)c(C)c1-c1ccc(N2CCOCC2)cc1 (centres unmarked) [Example 88, N-[1-(5-chloro-2-methoxy-6-methyl-4′-morpholin-4-ylbiphenyl-3-yl)ethyl]-9H-purin-6-amine] | < 100 nM | < 50 nM
COc1ncc(-c2c(C)c(Cl)cc(C(C)Nc3ncnc4[nH]cnc34)c2-c2cc(F)cc(F)c2)cn1 (centres unmarked) [Example 82, N-{1-[4-chloro-3′,5′-difluoro-6-(2-methoxypyrimidin-5-yl)-5-methylbiphenyl-2-yl]ethyl}-9H-purin-6-amine] | < 100 nM | < 50 nM
